Measurements reported in PubChem BioAssay (NCI).
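Tested at 5 concentrations; 48 h exposure; 96-well plates; endpoints linearly interpolated, else capped at highest concentration. TGI denotes the concentration required for complete inhibition of growth.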 Where a SMILES comes first, the peptide text is derived from it. [ ]: non-standard residue; d: D form. The star is where a group is joined. NMeF = CN[CH](Cc1ccccc1)C(=O)O; NMeV = CN[CH](C(=O)O)C(C)C; Boc = CC(C)(C)OC(=O)*; OBn = c1ccc(CO*)cc1

Tests used:
Assay in all cases: DTP human tumour cell line panel, 48 h
MCF7 breast = test system: MCF7 breast
HT29 colon = test system: HT29 colon
NCI-H460 lung = test system: NCI-H460 lung
LOX IMVI melanoma = test system: LOX IMVI melanoma
OVCAR-4 ovarian = test system: OVCAR-4 ovarian
NCI-H522 lung = test system: NCI-H522 lung
UACC-257 melanoma = test system: UACC-257 melanoma
SK-MEL-2 melanoma = test system: SK-MEL-2 melanoma
MALME-3M melanoma = test system: MALME-3M melanoma
SF-539 CNS = test system: SF-539 CNS

Row | SMILES | TGI (MCF7 breast) [µM] | TGI (HT29 colon) [µM] | TGI (NCI-H460 lung) [µM] | TGI (LOX IMVI melanoma) [µM] | TGI (OVCAR-4 ovarian) [µM] | TGI (NCI-H522 lung) [µM] | TGI (UACC-257 melanoma) [µM] | TGI (SK-MEL-2 melanoma) [µM] | TGI (MALME-3M melanoma) [µM] | TGI (SF-539 CNS) [µM]
1 | C=CCN1CC2CN=NC2(C#N)C1 (stereo not drawn) | > 100 | > 100 | > 100 | > 100 | > 100 | > 100 | > 100 | > 100 | > 100 | 
2 | C=C(C)CC1=C(C(=S)NCCO[Si](C)(C)C(C)(C)C)C(OCC)(OCC)C1=O | 35.9 | > 100 |  | 56.9 | 34.3 | 29 | 32.1 | 34.4 | 27.1 | 37.8
3 | CC(/C=N/NC1=NCCCCN1)=N\NC1=NCCCCN1 | > 100 | > 100 | > 100 | > 100 | > 100 | > 100 | > 100 |  | 84 | > 100
4 | O=C(NCCO)c1c(O)c2ccccc2[nH]c1=O | > 100 | > 100 | > 100 | > 100 | > 100 | > 100 | > 100 |  | > 100 | > 100
5 | CC(O)(c1ccccc1)c1nccc2ccccc12 (stereo not drawn) | > 100 | > 100 | > 100 | > 100 | > 100 | > 100 | > 100 |  | > 100 | 
6 | CCCCNC(=S)/N=C/c1c(O)c2ccccc2oc1=O | > 100 | > 100 | > 100 | > 100 | > 100 |  | > 100 | > 100 |  | > 100
7 | O=C(c1ccc(Cl)cc1)N(C(=S)N1CCN(c2ccccn2)CC1)c1ccccc1 |  | > 100 | > 100 | > 100 | > 100 | > 100 | > 100 | > 100 | > 100 | > 100
8 | C=CCC1NCCC2=C1C(S(=O)(=O)c1ccc(C)cc1)c1ccccc12 (stereo not drawn) | 22 | 29.4 | 26.2 | 23.1 | 25.7 | 26 | > 53.4 | 27.1 | 24 | 
9 | C[C@]12CCC(=O)C=C1CC[C@@H]1[C@@H]2C(=O)C[C@@]2(C)[C@H]1CC[C@]2(O)C(=O)CO |  | > 100 | > 100 |  | > 100 | > 100 |  | > 100 | > 100 | > 100
10 | COC(=O)c1ccc(C)cc1C1CN=NC12Cc1cc(C)c(C)cc1C2=O (stereo not drawn) | > 100 | > 100 | > 100 | > 100 | > 100 | 78.4 | > 100 |  | > 100 | > 100
11 | Cc1nnc(N)nc1/C=C\c1cccs1 | > 100 | 41.4 | 32.5 | > 100 | 74.2 | 17.6 | > 100 | 30.5 | 29.4 | 
12 | O=C1C[C@H](c2ccccc2)C2(C(=O)c3ccccc3C2=O)[C@@H](c2ccccc2)C1 | 83 | > 100 | > 100 |  | > 100 | > 100 |  | 69.3 | > 100 | 
13 | O=C1C=CC2(O[C@@H](Cc3ccccc3)[C@H](Cc3ccccc3)O2)C(SC(=O)c2ccccc2)C1 (stereo partly drawn) | 2.12 | 3.08 | 9.56 | 1.46 | 4.4 |  | 2.55 | 3.46 | 5.06 | 3.04
14 | CC1CCC2c3c([nH]c4ccccc34)C3C(=O)N(C4CCCCC4)C(=O)C3C2C1 (stereo not drawn) |  | > 100 | > 100 | > 100 |  | > 100 | > 100 | 40.3 | > 100 | 62.6
15 | CC(=O)c1ccc(NC(=O)/C(=N\NC(N)=O)C(C#N)CC(C)(C)C=O)cc1 (stereo not drawn) |  | > 100 | > 100 | > 100 | > 100 | > 100 | > 100 | > 100 |  | > 100
16 | Cc1cccc2c(N)c3cccc(C(=O)NCC[N+](C)(C)Cc4sc(N5CCOCC5)nc4[N+](=O)[O-])c3nc12 | 13.5 | 2.74 |  | 3.78 | 14.4 | 4.54 | 43 | 45.3 | 24.7 | 10
17 | COc1ccc(C2C(C(=O)O)=C(COC(C)=O)Oc3cc4c(cc32)OCO4)cc1 (stereo not drawn) |  | > 100 | > 100 | > 100 | > 100 |  | > 100 |  | > 100 | 
18 | C=C1C(=O)[C@]23[C@H](O)[C@H]1CC[C@H]2[C@@]12CO[C@@]3(O)C[C@@H]1C(C)(C)CC[C@@H]2O | 13.1 | > 25 |  | 13.9 | > 25 | 8.8 | 21.1 |  | 23.4 | 16.7
19 | COc1ccc(N2C(=O)C3c4[nH]c5ccccc5c4C4CCC(C(C)C)CC4C3C2=O)cc1 (stereo not drawn) | > 100 | > 100 | > 100 | > 100 | > 100 | > 100 | > 100 | > 100 | > 100 | 
20 | CC1=CC(=O)c2cccc(NC3=NCCO3)c21 |  | > 100 | > 100 | > 100 | > 100 | > 100 |  | > 100 | 91.6 | > 100
21 | Cc1nc2ccccc2c(=O)n1NC(=O)Cc1ccccc1 | > 100 | > 100 | > 100 | > 100 | > 100 | > 100 | > 100 |  | > 100 | > 100
22 | FC1CCN(C2(c3cccs3)CCCCC2)CC1 | > 100 | > 100 | > 100 | > 100 | > 100 | > 100 | > 100 | > 100 | > 100 | 
23 | COC(=O)C[C@H](COCc1ccccc1)NC(=O)C[C@H](COCc1ccccc1)NC(=O)C[C@H](COCc1ccccc1)NC(=O)OC(C)(C)C | 28.9 | > 100 |  | > 100 | 17.4 | > 100 |  | > 100 | > 100 | > 100

Row | SMILES | TGI (MCF7 breast) [µM] | TGI (HT29 colon) [µM] | TGI (NCI-H460 lung) [µM] | TGI (LOX IMVI melanoma) [µM] | TGI (OVCAR-4 ovarian) [µM] | TGI (NCI-H522 lung) [µM] | TGI (UACC-257 melanoma) [µM] | TGI (SK-MEL-2 melanoma) [µM] | TGI (MALME-3M melanoma) [µM] | TGI (SF-539 CNS) [µM]
24 | CC(=O)c1ccc2c(c1)oc(=O)n2CCN(C)C | > 100 | > 100 | > 100 | > 100 |  |  | > 100 | > 100 | > 100 | > 100
25 | Brc1cccc(C2(CCCC3(c4cccc(Br)n4)OCCO3)OCCO2)n1 | > 100 |  | > 100 | > 100 | > 100 | > 100 | > 100 | > 100 |  | > 100
26 | CCC(=N\NC(N)=S)/C(C)=N/O | > 100 | > 100 | > 100 | > 100 | > 100 |  | > 100 | > 100 | > 100 | > 100
27 | CC(=O)Oc1ccc(OC(Oc2ccccc2)c2ccccc2)cc1 (stereo not drawn) | 82.2 | 87 | 49.3 | 52.6 | > 100 | 96.4 | 64.5 |  | 52.9 | 49.8
28 | CC(NC(=O)C(C)C(=O)NCc1ccc(C(F)(F)F)cc1)C(N)=O (stereo not drawn) | > 100 | > 100 | > 100 |  |  | > 100 | > 100 | > 100 | > 100 | > 100
29 | CC(C)C(NC(=O)OC(C)(C)C)C(=O)N(C)C(Cc1ccccc1)C(=O)N(C)C(C(=O)N(C)C(C(=O)OCc1ccccc1)C(C)C)C(C)C (stereo not drawn) (Boc-V[NMeF][NMeV][NMeV]-OBn; configuration not given here) |  | > 100 | > 100 | > 100 |  | > 100 | > 100 |  | > 100 | > 100
30 | Cc1cc(S(=O)(=O)O)ccc1N=Nc1ccc(N=Nc2c(O)ccc3ccccc23)c(C)c1 |  | > 100 |  | > 100 | > 100 | 68.5 | > 100 | > 100 | > 100 | 
31 | CC1NOC(NS(=O)(=O)c2ccc(N=Nc3c(O)c(C(=O)O)cc4ccccc34)cc2)C1C (stereo not drawn) | > 100 | > 100 | > 100 |  | > 100 | > 100 | > 100 | > 100 | > 100 | > 100
32 | C1OCN2c3nonc3N3COCN4c5nonc5N1C2C43 (stereo not drawn) | > 100 | > 100 | > 100 |  | > 100 | > 100 | > 100 | > 100 | > 100 | > 100
33 | O=c1c2c([nH]c3cc4c(cc13)OCO4)-c1ccccc1CCC2 | > 50 | > 50 | > 50 | > 50 | > 50 | > 50 | > 50 |  | > 50 | > 50
34 | c1ccc(C(CCN2CCCC2)c2ccccn2)cc1 (stereo not drawn) | > 100 | > 100 | > 100 | > 100 | > 100 | > 100 | > 100 | > 100 | > 100 | 
35 | CCN(CC)C(=S)SNCCc1ccc(S(N)(=O)=O)cc1 |  | 27.1 | > 100 | 33 | 35.6 | 4.63 | 32.9 | > 86.7 | 24.3 | 28.8
36 | CCN(CC)C(=O)c1c(N2CCOCC2)cc(N(CC)CC)oc1=O |  | > 100 | > 100 | > 100 | > 100 | > 100 | > 100 | > 100 | > 100 | > 100
37 | O=C(CCc1cc(O)cc(O)c1)NCCc1ccc(O)c(O)c1 | > 100 | > 100 | > 100 | > 100 |  | > 100 | > 100 | > 100 |  | > 100
38 | Cc1ccc(NC(=O)c2cccc([N+](=O)[O-])c2O)c(C)c1 |  | > 100 | > 100 | > 100 | > 100 | 70.1 | 66.2 | > 100 | 17.9 | 89.6
39 | CCCCCCC(CCl)c1sc(-c2csc(CCNC(=O)OC(C)(C)C)n2)nc1C(=O)OC (stereo not drawn) | 29.5 | 51.2 | 46.8 | 25.9 | 78 | > 100 | 67.6 | 29.6 |  | 44.4
40 | O=c1c2cc(-c3ccccc3)cnc2sn1-c1ccc([N+](=O)[O-])cc1 | > 100 | > 100 | > 100 |  | > 100 | 75.4 | > 100 | > 100 | > 100 | > 100
41 | Cc1ccc([N+](=O)[O-])cc1S(=O)(=O)Nc1ccc(C2=NN(c3ccc([N+](=O)[O-])cc3[N+](=O)[O-])C(c3ccccc3O)C2)cc1 (stereo not drawn) | > 100 | > 100 |  | > 100 | > 100 | 83.1 | 82.7 | 59.4 | > 100 | > 100
42 | Cc1ccc(S(=O)(=O)n2cc(-c3cnc(N)c(Br)n3)c3ccccc32)cc1 | > 45.7 | 9.57 | > 100 | > 100 | > 100 |  | > 100 | > 100 |  | > 23.3
43 | c1ccc(C(=NNc2nc3ccccc3[nH]2)c2ccccn2)nc1 |  | 12.1 | > 100 | 27.8 | > 100 | 0.089 | 1.92 | > 100 |  | 0.546
44 | CC(=O)NC1C(OCc2ccccc2)OC(CO)C(O)C1OCC(=O)NC(C)C(=O)NC(CCC(=O)NCCCCCC(=O)Nc1ccc2c(c1)CN1C(=O)c3ccccc3C1=N2)C(N)=O (stereo not drawn) | > 100 | > 100 | > 100 | > 100 | > 100 |  | > 100 | > 100 | > 100 | > 100
45 | CN(C)CCCNC(=O)c1cc(NC(=O)c2cc(NC(=O)c3cc(NC(=O)CCCn4ccc(CO)c4CO)cn3C)cn2C)cn1C | > 100 |  | > 100 | > 100 | > 100 | 8.38 |  | 77 | 37.4 | 33.6
46 | ClCc1c(-c2ccccc2)nn(-c2ccccc2)c1CCl | 23.5 | 31.9 |  |  | 3.83 | 0.416 | 34.1 | 26.5 | 30.6 | 33.1
